Reference: paper PMC10394516, “The pharmacokinetic profile of brensocatib and its effect on pharmacodynamic biomarkers including NE, PR3, and CatG in various rodent species” (Frontiers in Pharmacology, 2023)
Like-named read-outs stand apart in the source and are kept apart here.

Assay: Plasma PK of brensocatib, BID vs QD oral dosing, Sprague Dawley rats
Assay type: in vivo
Conditions: both sexes, rat; for AUC(0-t): first 24 h
Protocol: A dose frequency study was performed in male and female mice (C57BL/6 & BALB/c) and in male and female rats (Sprague Dawley & Wistar) investigating twice daily (BID) versus once daily (QD) brensocatib administration.
Briefly, animals were weighed and randomized into different treatment groups. In total, three different dosing levels of brensocatib were tested in each species and strain; each QD dosing level was equivalent to 1.5-times the matching daily BID dose. For BID dosing, the second daily dose was administered 8-h post the morning dose. C57BL/6 mice were dosed either BID or QD for 7 consecutive days at 0/0, 0.5/0.75, 2/3, and 20/30 mg/kg/day (BID/QD). BALB/c mice were dosed for 7 consecutive days at 0/0, 0.2/0.3, 2/3, and 20/30 mg/kg/day (BID/QD). SD rats were dosed for 9 consecutive days at 0/0, 0.2/0.3, 2/3, and 20/30 mg/kg/day (BID/QD). Wistar rats were dosed for 7 consecutive days at 0/0, 0.2/0.3, 2/3, and 20/30 mg/kg/day (BID/QD).
For sparse PK analysis via LC-MS/MS, plasma was collected from animals during the first 24 h of dosing at prescribed timepoints. The timepoints included 1, 3, 8, and 24 h post initial dose for QD groups, and 1, 3, 8, 9, 11, and 24 h post initial dose for BID groups. Note that the 8- and 24-h plasma samples were prior to the afternoon dose for BID groups and prior to the second day dose for all groups, respectively. See section Quantification of Plasma Brensocatib Concentrations for details.
Blood was collected via the tail-vein technique and centrifuged to separate and collect the plasma. The resulting plasma samples were stored at −20°C or lower until LC-MS/MS analysis.
The plasma concentration of brensocatib was quantified by liquid chromatography, tandem mass spectrometry (LC-MS/MS), a Sciex API6500 mass spectrometer (SCIEX, Framingham, MA). Two brensocatib stock solutions were prepared, one for the preparation of the 8-point standard (STD) curve spiking solutions and the other for the preparation of the quantitative control spiking solutions (QCs) at three levels. The STD curve and QCs were prepared by 2% spiking from the spiking solutions into mouse or rat plasma. The samples were extracted using a protein precipitation method, where 10 µL of sample was mixed with 100 µL of internal standard working solution (100 ng/mL ^6C13-brensocatib in methanol), vortexed for 5 s, and centrifuged at 21,130 × g at 4°C for 15 min. The supernatant was mixed with an equal volume of water and 10 μL was injected into a Phenomenex Kinetex Biphenyl column (3.0 mm × 50 mm; 2.6 μm; 65°C; 0.8 mL/min) with an elution gradient consisting of mobile phase A (10 mM ammonium formate) and mobile phase B (methanol) over 2 min from 5% to 95% B. The mass spectrometer was equipped with an atmospheric-pressure chemical ionization source operating in positive mode.
Individual plasma concentrations were plotted and the area under the curve (AUC) was calculated using the trapezoid method. The elimination rate constant (k e ) was calculated as the negative natural log of the plasma concentration over time (Eq. 1) starting at the max concentration (C max) after the most recent dose to the last measurable plasma concentration between doses. The calculated k e was used to define the half-life (t 1/2 ) based on Eq. 2; where 0.693 is the natural log of 2 and assumes a first-order reaction. ke=−ln∆C/∆t (1) t1/2=0.693/ke (2)

`Cn1c(=O)oc2ccc(-c3ccc(C[C@@H](C#N)NC(=O)[C@@H]4CNCCCO4)cc3)cc21` [brensocatib] showed a half-life (Sprague Dawley, Wistar, oral, rats (both strains), across BID and QD regimens, sparse PK, read-out: half-life (overall) (converted)) of about 480 min, an AUC(0-t) (Sprague-Dawley, SD rats, oral BID, 0.2 mg/kg/day, read-out: AUC0–24h) of 124 ± 81 ng·h/mL and an AUC(0-t) (Sprague-Dawley, SD rats, oral BID, 0.2 mg/kg/day, read-out: AUC(0–24)) of 0.29 ± 0.19 µM·h. It also gave an AUC(0-t) (Sprague-Dawley, SD rats, oral BID, 2 mg/kg/day, read-out: AUC0–24h) of 4730 ± 421 ng·h/mL, an AUC(0-t) (Sprague-Dawley, SD rats, oral BID, 2 mg/kg/day, read-out: AUC(0–24)) of 11.2 ± 1 µM·h and an AUC(0-t) (Sprague-Dawley, SD rats, oral BID, 20 mg/kg/day, read-out: AUC0–24h) of 72600 ng·h/mL. For the same molecule, the AUC(0-t) (Sprague-Dawley, SD rats, oral BID, 20 mg/kg/day, read-out: AUC(0–24)) was 173 ± 8.09 µM·h, the AUC(0-t) (Sprague-Dawley, SD rats, oral QD, 0.3 mg/kg/day, read-out: AUC0–24h) was 269 ± 128 ng·h/mL and the AUC(0-t) (Sprague-Dawley, SD rats, oral QD, 0.3 mg/kg/day, read-out: AUC(0–24)) was 0.64 ± 0.3 µM·h. For the same molecule, the AUC(0-t) (Sprague-Dawley, SD rats, oral QD, 3 mg/kg/day, read-out: AUC0–24h) was 11100 ng·h/mL, the AUC(0-t) (Sprague-Dawley, SD rats, oral QD, 3 mg/kg/day, read-out: AUC(0–24)) was 26.39 ± 0.25 µM·h and the AUC(0-t) (Sprague-Dawley, SD rats, oral QD, 30 mg/kg/day, read-out: AUC0–24h) was 104000 ng·h/mL. For the same molecule, the AUC(0-t) (Sprague-Dawley, SD rats, oral QD, 30 mg/kg/day, read-out: AUC(0–24)) was 248 ± 59.5 µM·h, the half-life (Sprague-Dawley, po, 0.2 mg/kg/day, SD rats, oral BID, 0.2 mg/kg/day, evening dose, read-out: t1/2, PM dose (converted)) was 33 ± 1.2 min and the half-life (Sprague-Dawley, po, 0.3 mg/kg/day, SD rats, oral QD, 0.3 mg/kg/day, read-out: t1/2, AM dose (converted)) was 322 ± 143 min. For the same molecule, the half-life (Sprague-Dawley, po, 2 mg/kg/day, SD rats, oral BID, 2 mg/kg/day, evening dose, read-out: t1/2, PM dose (converted)) was 445 ± 69.6 min, the half-life (Sprague-Dawley, po, 2 mg/kg/day, SD rats, oral BID, 2 mg/kg/day, morning dose, read-out: t1/2, AM dose (converted)) was 809 ± 550 min and the half-life (Sprague-Dawley, po, 3 mg/kg/day, SD rats, oral QD, 3 mg/kg/day, read-out: t1/2, AM dose (converted)) was 268 ± 22.2 min. The half-life (Sprague-Dawley, po, 20 mg/kg/day, SD rats, oral BID, 20 mg/kg/day, evening dose, read-out: t1/2, PM dose (converted)) was 242 ± 26.4 min, the half-life (Sprague-Dawley, po, 20 mg/kg/day, SD rats, oral BID, 20 mg/kg/day, morning dose, read-out: t1/2, AM dose (converted)) was 846 ± 93 min and the half-life (Sprague-Dawley, po, 30 mg/kg/day, SD rats, oral QD, 30 mg/kg/day, read-out: t1/2, AM dose (converted)) was 233 ± 2.4 min.
